From ChEMBL document CHEMBL6121042, “Isolation of Antiplasmodial Oxazoles and Isoflavonoids from the Roots of Oxytropis trichophysa and Total Synthesis of Oxazole-type Alkaloids” (J Nat Prod, 2025)
The source made the active and inactive calls. The rule behind the calls is not given here.

Key:
Plasmodium falciparum = assay: Antiplasmodial activity against Plasmodium falciparum 3D7 infected in red blood cells assessed as parasitic growth inhibition incubated for 72 hrs by SYBR Green I staining based analysis; format: functional, organism-based; conditions: for IC50: 3D7, 72 h
[1] = Cytotoxicity against human HFF cells assessed as reduction in cell viability incubated for 72 hrs by CCK-8 assay; format: toxicity, cell-based
[2] = Selectivity index, ratio of CC50 for human HFF cells to IC50 for Plasmodium falciparum 3D7; format: toxicity, cell-based; conditions: read-out: Selectivity Index

| Structure (SMILES) | IC50 (Plasmodium falciparum) | CC50 at 72 h [1] | selectivity ratio [2] | Activity (Plasmodium falciparum) |
| --- | --- | --- | --- | --- |
| Oc1cccc(-c2cnc(-c3ccccc3)o2)c1O | 3.1 µM | 8.5 µM | 2.7 | – |
| Oc1ccc(O)c(-c2cnc(-c3ccccc3)o2)c1 | 5.5 µM | 69.3 µM | 9.4 | – |
| COc1c(O)cc2c(c1OC)O[C@H]1c3ccc(O)cc3OC[C@@H]21 | – | – | – | inactive |
| C[C@@H]1CC[C@H]2[C@@H](C)C(=O)O[C@@H]3O[C@@]4(C)CC[C@@H]1[C@]32OO4 [ARTEMISININ] | 0.025 µM | > 200 µM | > 7890 | – |
| COc1c(O)cc([C@@H]2COc3cc(O)ccc3C2)c(O)c1OC | 6.2 µM | 5.6 µM | 0.9 | – |
| COC1=C(OC)C(=O)C([C@@H]2COc3cc(O)ccc3C2)=CC1=O | 5.8 µM | 13.7 µM | 2.3 | – |
| COc1ccc2c(c1OC)O[C@H]1c3ccc(O)cc3OC[C@@H]21 | – | – | – | inactive |
| c1ccc(COc2ccc(-c3ncc(-c4ccccc4OCc4ccccc4)o3)cc2)cc1 | 4.8 µM | 72 µM | 14.8 | – |
| COc1ccc([C@@H]2COc3cc(O)ccc3C2)c(O)c1OC | – | – | – | inactive |
| COc1ccc([C@@H]2COc3cc(O)ccc3C2)c(OC)c1O | – | – | – | inactive |
| Oc1ccccc1-c1cnc(-c2ccccc2)o1 | 4.6 µM | > 100 µM | > 18.8 | – |
| COc1cc([C@@H]2COc3cc(O)ccc3C2)c(O)c(OC)c1OC | – | – | – | inactive |
